IC50 data for 20 compounds are collected here from patent publication US11021493B2, “1,4-thiazine dioxide and 1,2,4-thiadiazine dioxide derivatives as beta-secretase inhibitors and methods of use” (AMGEN INC., priority 2016, dated 2021).

Some results are limits rather than exact numbers.

The target in one assay is human recombinant BACE2 (Homo sapiens (Human), UniProt Q9Y5Z0). The assay can be described thus: In vitro enzymatic BACE2 FRET assay. The assay is classed as biochemical. As to conditions: read-out: BACE2 Enzyme IC50.
The target in assay [1] is T1, BACE1 (Homo sapiens (Human), UniProt P56817). The assay can be described thus: In vitro BACE1 cell-based assay (Aβ40 in conditioned medium of cells stably expressing APP, HTRF). The following applies: Aβ40 in conditioned media after 24 h incubation. For orientation: TR-FRET usually uses a lanthanide donor and a delayed reading to cut background.
Target sequence in this assay (P56817 46-501, species assumed): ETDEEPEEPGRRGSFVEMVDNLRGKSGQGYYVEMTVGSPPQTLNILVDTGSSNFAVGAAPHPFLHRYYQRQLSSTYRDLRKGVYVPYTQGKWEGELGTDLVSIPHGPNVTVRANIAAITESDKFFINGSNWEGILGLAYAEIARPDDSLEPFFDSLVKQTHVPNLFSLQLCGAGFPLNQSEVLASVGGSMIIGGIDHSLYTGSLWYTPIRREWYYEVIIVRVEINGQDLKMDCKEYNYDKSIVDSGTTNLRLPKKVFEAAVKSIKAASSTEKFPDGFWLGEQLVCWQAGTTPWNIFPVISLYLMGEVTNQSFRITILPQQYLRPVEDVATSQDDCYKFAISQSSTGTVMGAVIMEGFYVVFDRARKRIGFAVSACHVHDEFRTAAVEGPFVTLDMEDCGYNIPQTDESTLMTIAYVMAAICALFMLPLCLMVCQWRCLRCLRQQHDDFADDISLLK
For another assay, the target named is Cathepsin D (CatD) (Homo sapiens (Human), UniProt P07339). The assay can be described thus: In vitro enzymatic Cathepsin D (CatD) FRET assay. The assay is classed as biochemical. As to conditions: read-out: Cat D Enzyme IC50.
The target of assay [2] is T1, BACE1. The assay can be described thus: In vitro enzymatic BACE1 FRET assay. Type of assay: biochemical. As to conditions: read-out: BACE1 Enzyme IC50.
Target sequence in this assay (P56817 46-501): as the sequence (P56817 46-501, species assumed) above

Chain of Cathepsin D (CatD) (P07339 65-412, species assumed): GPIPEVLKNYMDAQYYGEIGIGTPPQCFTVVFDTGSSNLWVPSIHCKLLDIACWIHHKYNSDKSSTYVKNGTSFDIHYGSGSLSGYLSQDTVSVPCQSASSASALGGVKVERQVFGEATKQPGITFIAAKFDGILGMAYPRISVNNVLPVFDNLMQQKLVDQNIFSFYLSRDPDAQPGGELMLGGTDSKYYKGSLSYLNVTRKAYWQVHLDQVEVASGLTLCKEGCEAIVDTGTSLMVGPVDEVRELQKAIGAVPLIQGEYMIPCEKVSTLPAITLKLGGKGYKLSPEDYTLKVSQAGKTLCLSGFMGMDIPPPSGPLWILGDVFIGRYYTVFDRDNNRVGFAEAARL
Chain of human recombinant BACE2 (Q9Y5Z0 63-518): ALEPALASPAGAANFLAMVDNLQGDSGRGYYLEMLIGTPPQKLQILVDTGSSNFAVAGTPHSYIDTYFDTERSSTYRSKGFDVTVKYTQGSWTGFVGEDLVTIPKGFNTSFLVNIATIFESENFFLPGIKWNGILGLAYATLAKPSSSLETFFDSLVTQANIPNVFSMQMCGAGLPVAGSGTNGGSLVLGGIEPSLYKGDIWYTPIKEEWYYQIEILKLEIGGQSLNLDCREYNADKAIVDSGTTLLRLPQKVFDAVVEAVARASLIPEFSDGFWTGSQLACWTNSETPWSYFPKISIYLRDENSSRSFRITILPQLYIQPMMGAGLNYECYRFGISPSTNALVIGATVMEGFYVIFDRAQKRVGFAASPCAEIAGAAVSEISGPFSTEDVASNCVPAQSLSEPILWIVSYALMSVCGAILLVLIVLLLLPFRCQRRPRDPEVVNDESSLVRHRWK

In the case of `COc1cnc(/C(F)=C/c2ccc(F)c([C@]3(C)CS(=O)(=O)N(C)C(N)=N3)c2)cn1` [Example 241, (5R)-5-(2-fluoro-5-((Z)-2-fluoro-2-(5-methoxy-2-pyrazinyl)ethenyl)phenyl)-2,5-dimethyl-5,6-dihydro-2H-1,2,4-thiadiazin-3-amine 1,1-dioxide], the half-inhibitory concentration (IC50) (usually the concentration needed to halve the response being measured) came out at 75 nM at human recombinant BACE2, 168 nM at BACE1 [1], 91300 nM at Cathepsin D (CatD) and 107 nM on BACE1 [2].
In the case of `C[C@]1(c2cc(/C=C(\F)c3cnc(OCC4COC4)cn3)ccc2F)N=C(N)[C@@]2(CF)CC[C@@H]1S2(=O)=O` [Example 126, (1R,4R,5S)-2-amino-4-(2-fluoro-5-((Z)-2-fluoro-2-(5-(oxetan-3-ylmethoxy)pyrazin-2-yl)vinyl)phenyl)-1-(fluoromethyl)-4-methyl-8-thia-3-azabicyclo[3.2.1]oct-2-ene 8,8-dioxide], the IC50 was 141 nM on human recombinant BACE2, 457 nM at BACE1 [1], 100000 nM on Cathepsin D (CatD) and 138 nM on BACE1 [2].
The matching figures for `CC#C[C@H](CC)Oc1cnc(/C(F)=C/c2ccc(F)c([C@]3(C)CS(=O)(=O)C(C)(C)C(N)=N3)c2)cn1` (single isomer, unassigned) [Example 199]: 102 nM, 2 nM, 51200 nM and 4 nM.
The matching figures for `CCCOc1cnc(/C(F)=C/c2ccc(F)c([C@@]3(C)N=C(N)[C@@]4(CF)CC[C@@H]3S4(=O)=O)c2)cn1` [Example 135, (1R,4R,5S)-2-amino-4-(2-fluoro-5-((Z)-2-fluoro-2-(5-propoxypyrazin-2-yl)vinyl)phenyl)-1-(fluoromethyl)-4-methyl-8-thia-3-azabicyclo[3.2.1]oct-2-ene 8,8-dioxide]: 120 nM, 866 nM, more than 400000 nM and 86 nM.
As for `CC#C[C@@H](C)Oc1cnc(/C(F)=C/c2ccc(F)c([C@]3(C)CS(=O)(=O)C(C)(C)C(N)=N3)c2)cn1` (single isomer, unassigned) [Example 207], the IC50 turned out to be 519 nM on human recombinant BACE2, 2530 nM at BACE1 [1], 57500 nM on Cathepsin D (CatD) and 507 nM at BACE1 [2].
The matching figures for `CC1(C)C(N)=N[C@](C)(c2cc(/C=C(\F)c3cnc(OCc4ccncc4)cn3)ccc2F)CS1(=O)=O` [Example 210, (R,Z)-5-amino-3-(2-fluoro-5-(2-fluoro-2-(5-(pyridin-4-ylmethoxy)pyrazin-2-yl)vinyl)phenyl)-3,6,6-trimethyl-3,6-dihydro-2H-1,4-thiazine 1,1-dioxide]: 476 nM, 2230 nM, 467000 nM and 1720 nM.
`CN1C(N)=N[C@](C)(c2cc(/C=C(\F)c3cc4c(cn3)OCCO4)ccc2F)CS1(=O)=O` [Example 187, (R,Z)-3-amino-5-(5-(2-(2,3-dihydro-[1,4]dioxino[2,3-c]pyridin-7-yl)-2-fluorovinyl)-2-fluorophenyl)-2,5-dimethyl-5,6-dihydro-2H-1,2,4-thiadiazine 1,1-dioxide]: the IC50 on human recombinant BACE2 is 78 nM; at BACE1 [1], 108 nM; at Cathepsin D (CatD), 165000 nM; on BACE1 [2], 172 nM.
The matching figures for `Cc1noc(COc2cnc(/C(F)=C/c3ccc(F)c([C@@]4(C)N=C(N)[C@@]5(CF)CC[C@@H]4S5(=O)=O)c3)cn2)n1` [Example 115, (1R,4R,5S)-2-amino-4-(2-fluoro-5-((Z)-2-fluoro-2-(5-((3-methyl-1,2,4-oxadiazazol-5-yl)methoxy)pyrazin-2-yl)vinyl)phenyl)-1-(fluoromethyl)-4-methyl-8-thia-3-azabicyclo[3.2.1]oct-2-ene 8,8-dioxide]: 192 nM, 27 nM, 102000 nM and 22 nM.
The matching figures for `CN1C(N)=N[C@](C)(c2cc(/C=C(\F)c3ncc(C#N)cc3Cl)cc(F)c2F)CS1(=O)=O` [Example 276, (R,Z)-6-(2-(3-(3-amino-2,5-dimethyl-1,1-dioxido-5,6-dihydro-2H-1,2,4-thiadiazin-5-yl)-4,5-difluorophenyl)-1-fluorovinyl)-5-chloronicotinonitrile]: 6 nM, 17 nM, 58000 nM and 2 nM.
As to `CN1C(N)=N[C@](C)(c2cc(/C=C(\F)c3ccc(Cl)cn3)ccc2F)CS1(=O)=O` [Example 104, (R,Z)-3-amino-5-(5-(2-(5-chloropyridin-2-yl)-2-fluorovinyl)-2-fluorophenyl)-2,5-dimethyl-5,6-dihydro-2H-1,2,4-thiadiazine 1,1-dioxide], the half-maximal inhibitory concentration (IC50) on human recombinant BACE2 was found to be 2 nM; at BACE1 [1], 24 nM; at Cathepsin D (CatD), 95000 nM; on BACE1 [2], 3 nM.
The matching figures for `CC1(C)C(N)=N[C@](C)(c2cc(/C=C(\F)c3cnc(OCCC(F)(F)F)cn3)ccc2F)CS1(=O)=O` [Example 142, (R,Z)-5-amino-3-(2-fluoro-5-(2-fluoro-2-(5-(3,3,3-trifluoropropoxy)pyrazin-2-yl)vinyl)phenyl)-3,6,6-trimethyl-3,6-dihydro-2H-1,4-thiazine 1,1-dioxide]: 425 nM, 739 nM, 90500 nM and 193 nM.
The matching figures for `CC(C)(C#N)COc1cnc(/C(F)=C/c2ccc(F)c([C@]3(C)CS(=O)(=O)C(C)(C)C(N)=N3)c2)cn1` [Example 153, (R,Z)-3-((5-(2-(3-(5-amino-3,6,6-trimethyl-1,1-dioxido-3,6-dihydro-2H-1,4-thiazin-3-yl)-4-fluorophenyl)-1-fluorovinyl)pyrazin-2-yl)oxy)-2,2-dimethylpropanenitrile]: 1060 nM, 2180 nM, 249000 nM and 636 nM.
For the compound `CC1(C)C(N)=N[C@](C)(c2cc(/C=C(\F)c3ccc(C#N)cn3)ccc2F)CS1(=O)=O` [Example 113, (R,Z)-6-(2-(3-(5-amino-3,6,6-trimethyl-1,1-dioxido-3,6-dihydro-2H-1,4-thiazin-3-yl)-4-fluorophenyl)-1-fluorovinyl)nicotinonitrile], the IC50 at human recombinant BACE2 was determined as 9 nM; at BACE1 [1] it was 4 nM; on Cathepsin D (CatD) it was 100000 nM; at BACE1 [2], 2 nM.
For the compound `CN1C(N)=N[C@](C)(c2cc(/C=C(\F)c3ccc(C(F)(F)F)cn3)cc(F)c2F)CS1(=O)=O` [Example 273, (R,Z)-3-amino-5-(2,3-difluoro-5-(2-fluoro-2-(5-(trifluoromethyl)pyridin-2-yl)vinyl)phenyl)-2,5-dimethyl-5,6-dihydro-2H-1,2,4-thiadiazine 1,1-dioxide], the IC50 came out at 46 nM on human recombinant BACE2, 13 nM against BACE1 [1], 76200 nM at Cathepsin D (CatD) and 7 nM at BACE1 [2].
The matching figures for `CC1(C)C(N)=N[C@](C)(c2cc(/C=C(\F)c3cnc(OCC4CCCC4)cn3)ccc2F)CS1(=O)=O` [Example 144, (R,Z)-5-amino-3-(5-(2-(5-(cyclopentylmethoxy)pyrazin-2-yl)-2-fluorovinyl)-2-fluorophenyl)-3,6,6-trimethyl-3,6-dihydro-2H-1,4-thiazine 1,1-dioxide]: 143 nM, 1070 nM, 17000 nM and 30 nM.
The matching figures for `CC1(C)C(N)=N[C@](CF)(c2cc(/C=C(\F)c3cnc(Cl)cn3)ccc2F)CS1(=O)=O` [Example 189, (S,Z)-5-amino-3-(5-(2-(5-chloropyrazin-2-yl)-2-fluorovinyl)-2-fluorophenyl)-3-(fluoromethyl)-6,6-dimethyl-3,6-dihydro-2H-1,4-thiazine 1,1-dioxide]: 59 nM, 2220 nM, 61800 nM and 60 nM.
The matching figures for `CN1C(N)=N[C@](C)(c2cc(/C=C(\F)c3cc4ccccc4cn3)ccc2F)CS1(=O)=O` [Example 259, (5R)-5-(2-fluoro-5-((Z)-2-fluoro-2-(3-isoquinolinyl)ethenyl)phenyl)-2,5-dimethyl-5,6-dihydro-2H-1,2,4-thiadiazin-3-amine 1,1-dioxide]: 41 nM, 1120 nM, 116000 nM and 272 nM.
Turning to `CN1C(N)=N[C@](C)(c2cc(/C=C(\F)c3ccc4c(c3)OCCO4)ccc2F)CS1(=O)=O` [Example 196, (R,Z)-3-amino-5-(5-(2-(2,3-dihydrobenzo[b][1,4]dioxin-6-yl)-2-fluorovinyl)-2-fluorophenyl)-2,5-dimethyl-5,6-dihydro-2H-1,2,4-thiadiazine 1,1-dioxide], the IC50 at human recombinant BACE2 came to 157 nM; against BACE1 [1], 1080 nM; at Cathepsin D (CatD), 56100 nM; at BACE1 [2] it was 583 nM.
The matching figures for `C[C@]1(c2cc(/C=C(\F)c3cnc(OCCF)cn3)ccc2F)N=C(N)[C@@]2(CF)CC[C@@H]1S2(=O)=O` [Example 133, (1R,4R,5S)-2-amino-4-(2-fluoro-5-((Z)-2-fluoro-2-(5-(2-fluoroethoxy)pyrazin-2-yl)vinyl)phenyl)-1-(fluoromethyl)-4-methyl-8-thia-3-azabicyclo[3.2.1]oct-2-ene 8,8-dioxide]: 151 nM, 339 nM, 428000 nM and 131 nM.
The matching figures for `CC#C[C@@H](CC)Oc1cnc(/C(F)=C/c2ccc(F)c([C@]3(C)CS(=O)(=O)C(C)(C)C(N)=N3)c2)cn1` (single isomer, unassigned) [Example 198]: 371 nM, 173 nM, 38300 nM and 113 nM.
